In paper PMC11905336, “Pyrrole‐Tethered Bisbenzoxazole Derivatives: Apoptosis‐Inducing Agents Targeting Breast Cancer Cells” (Chemical Biology & Drug Design, 2025):
Read-outs that look alike come from different tables or passages of the source.

Key:
[1] = test system: MCF‐7 cell lines; assay: MTT assay, cytotoxicity on MCF-7 cells; format: cell-based, human; conditions: for IC50: Homo sapiens, MTT
Protocol: The cytotoxic effects of PTB derivatives on MCF‐7 breast cancer cells were evaluated using the MTT assay at various concentrations (100 nM, 1 μM, 10 μM, 50 μM, and 100 μM).
(§1) The human dermal fibroblast (HDFa) and human breast cancer cells (MCF‐7) were obtained from the American Type Culture Collection (ATCC; Manassas, VA, USA). Cells were cultured in RPMI medium (MCF‐7) and DMEM medium (HDFa) was supplemented with 10% FBS, 1% penicillin–streptomycin, 1% amphotericin, and 2.5% L‐glutamine at 37°C in a 5% CO2 incubator.
MTT Method. The MTT method is used to detect and quantify living organisms cultured with the method colorimetrically. This method relies on intact mitochondria cleaving the tetrazolium ring of the MTT dye. The MTT substance is absorbed and reduced to a colorful, water‐insoluble formazan by a mitochondria‐dependent reaction. Cell viability is measured based on the MTT reduction property, and the density of dye obtained from MTT analysis indicates the number of viable cells. In this study, cell viability was assessed using the MTT (0.5 mg/mL) solution that was added to each well. […] After adding properties to cultures, they were kept at 37°C for 24 h and overnight. Then, at 48 and 72 h after applying the molecules, 10 μL of MTT was added to each well and incubated under similar conditions for 4 h. Absorbance spectrophotometry was performed at a wavelength of 570 nm using the IC50 = [(control absorbents‐sample absorbents)/control absorbents] × 100 calculation method (Khorsandi et al. [2017]).

[2] = test system: HDFa cell lines; assay: Cytotoxicity on healthy dermal fibroblasts (MTT / xCELLigence real-time cell analysis); format: cell-based; conditions: Homo sapiens
Protocol: The cytotoxicity of these derivatives was also assessed in dermal fibroblast cells using xCELLigence analysis as detailed in the Supporting Information.
as §1
xCELLigence Real‐Time Cell Analysis. The xCELLigence system (Real‐Time Cell Analyzer (RTCA) Dual Plate (DP) (Roche Diagnostics GmbH, Penzberg)) was used for real‐time monitoring of cell viability without the need for labeling. A total of 1 × 10^4 HDFa cells were seeded into each well of the E‐plate, and the cell proliferation curve was monitored for 24 h. […] The Cell Index (CI) value was automatically measured every hour for each well using RTCA Software (version 1.2.1) (Yetkin et al. [2021]; Yıldırım et al. [2022]).

[3] = test system: MCF‐7 cells; assay: Apoptosis/necrosis by flow cytometry, Annexin V/propidium iodide, MCF-7; format: cell-based, human; conditions: MCF-7, 48 h, p < 0.05
Protocol: Flow cytometry analysis was performed to evaluate the percentages of apoptosis for these compounds compared to tamoxifen. MCF‐7 cell suspensions treated with each compound for 48 h were stained using an apoptosis detection kit and subsequently analyzed using flow cytometry.
The assessment of apoptosis through flow cytometry is a valuable method for obtaining quantitative results to determine the levels of apoptosis and necrosis in cells. In our study, the 48th‐hour apoptosis levels of three synthases with the lowest IC50 values (PTB derivatives B8, B14, and B18) were evaluated. To assess apoptosis levels, MCF‐7 cells and healthy fibroblast cells were incubated with these synthases for 48 h. After this incubation period, the cells were treated with Annexin‐V APC and PE propidium iodide (PI) dyes to examine apoptosis levels. Then, to examine the levels of apoptosis, the cells were incubated at a concentration of 2 × 10^5 cells/mL with 5 μL Annexin‐V APC and 10 μL PI dyes in 100 μL Binding buffer for 15 min at room temperature. Samples were then washed twice in PBS, and the BD FACS ARIA III flow cytometry device was used to determine the percentage of apoptotic cells. (Ayaz et al. [2022]).

[4] = MCF7, read-out: IC50 (μM) for MCF‐7 cell lines, 48 h
[5] = MCF7, 24 h, read-out: IC50 (μM) for MCF‐7 cell lines, 24 h
[6] = MCF7, 72 h, read-out: IC50 (μM) for MCF‐7 cell lines, 72 h
[7] = 24 h, values greater than 100 not calculated, read-out: IC50 (μM) for HDFa cell lines, 24 h
[8] = 72 h, values greater than 100 not calculated, read-out: IC50 (μM) for HDFa cell lines, 72 h
[9] = read-out: IC50 (μM) for HDFa cell lines, 48 h, values greater than 100 not calculated

SMILES | IC50 [1, 4] | IC50 [1, 5] | IC50 [1, 6] | IC50 [2, 7] | IC50 [2, 8] | IC50 [2, 9] | IC50 in MCF-7 compared to tamoxifen (fold lower) ([1]; MCF-7, MTT) | Secondary apoptosis vs control [3]
Cc1ccc2nc(-c3ccc(-c4nc5ccc(C)cc5o4)[nH]3)oc2c1 [Compound B3, 2,5‐Bis(6‐Methylbenzo[d]Oxazol‐2‐Yl)‐1H‐Pyrrole] | 4.38 ± 0.98 µM | 3.3 ± 1.96 µM | 3.53 ± 0.65 µM | ≥ 100 µM | ≥ 100 µM | ≥ 100 µM | – | –
COc1ccc2oc(-c3ccc(-c4nc5cc(OC)ccc5o4)[nH]3)nc2c1 [Compound B4, 2,5‐Bis(5‐Methoxybenzo[d]Oxazol‐2‐Yl)‐1H‐Pyrrole] | 4.19 ± 1.86 µM | 4.56 ± 1.56 µM | 3.11 ± 0.56 µM | 97.3 ± 1.34 µM | ≥ 100 µM | 99.23 ± 0.32 µM | – | –
c1ccc2oc(-c3ccc(-c4nc5ccccc5o4)[nH]3)nc2c1 [Compound B1, 2,5‐Bis(Benzo[d]Oxazol‐2‐Yl)‐1H‐Pyrrole] | 2.96 ± 1.02 µM | 3.89 ± 1.15 µM | 3.13 ± 1.12 µM | 89.4 ± 1.23 µM | ≥ 100 µM | 89.93 ± 0.43 µM | – | –
Clc1ccc2oc(-c3ccc(-c4nc5cc(Cl)ccc5o4)[nH]3)nc2c1 [Compound B5, 2,5‐Bis(5‐Chlorobenzo[d]Oxazol‐2‐Yl)‐1H‐Pyrrole] | 2.69 ± 2.01 µM | 3.73 ± 1.05 µM | 3.28 ± 1.32 µM | 95.3 ± 1.92 µM | ≥ 100 µM | 97.5 ± 2.93 µM | – | –
COc1ccc2oc(-c3ccc(-c4nc5cc(Cl)ccc5o4)[nH]3)nc2c1 [Compound B17, 5‐Chloro‐2‐(5‐(5‐Methoxybenzo[d]Oxazol‐2‐Yl)‐1H‐Pyrrol‐2‐Yl)benzo[d]Oxazole] | 3.44 ± 1.12 µM | 3.7 ± 1.12 µM | 3.03 ± 0.76 µM | 98.3 ± 1.57 µM | 99 ± 1 µM | 99 ± 1.96 µM | – | –
Cc1ccc2nc(-c3ccc(-c4nc5cc(Cl)ccc5o4)[nH]3)oc2c1 [Compound B19, 5‐Chloro‐2‐(5‐(6‐Methylbenzo[d]Oxazol‐2‐Yl)‐1H‐Pyrrol‐2‐Yl)benzo[d]Oxazole] | 2.97 ± 1.12 µM | 2.83 ± 0.87 µM | 3.42 ± 1.12 µM | 97.3 ± 1.34 µM | 99.82 ± 0.89 µM | 97.3 ± 1.2 µM | – | –
Cc1ccc2oc(-c3ccc(-c4nc5ccccc5o4)[nH]3)nc2c1 [Compound B6, 2‐(5‐(Benzo[d]Oxazol‐2‐Yl)‐1H‐Pyrrol‐2‐Yl)‐5‐Methylbenzo[d]Oxazole] | 3.09 ± 1.23 µM | 2.81 ± 0.76 µM | 3.02 ± 0.89 µM | 98.5 ± 1.02 µM | 99.1 ± 1.73 µM | 99 ± 1.76 µM | – | –
COC(=O)c1ccc2nc(-c3ccc(-c4nc5ccc(C)cc5o4)[nH]3)oc2c1 [Compound B16, Methyl 2‐(5‐(6‐Methylbenzo[d]Oxazol‐2‐Yl)‐1H‐Pyrrol‐2‐Yl)benzo[d]Oxazole‐6‐Carboxylate] | 2.82 ± 2.14 µM | 3.03 ± 1.35 µM | 2.93 ± 1.02 µM | 95.3 ± 1.03 µM | 99.3 ± 1.07 µM | 97.3 ± 1.09 µM | – | –
Cc1ccc2nc(-c3ccc(-c4nc5ccccc5o4)[nH]3)oc2c1 [Compound B7, 2‐(5‐(Benzo[d]Oxazol‐2‐Yl)‐1H‐Pyrrol‐2‐Yl)‐6‐Methylbenzo[d]Oxazole] | 4.68 ± 0.98 µM | 4.08 ± 1.23 µM | 2.53 ± 1.82 µM | 97.3 ± 1.06 µM | 100 ± 1.03 µM | 98.5 ± 2 µM | – | –
Cc1ccc2oc(-c3ccc(-c4nc5ccc(C)cc5o4)[nH]3)nc2c1 [Compound B11, 6‐Methyl‐2‐(5‐(5‐Methylbenzo[d]Oxazol‐2‐Yl)‐1H‐Pyrrol‐2‐Yl)benzo[d]Oxazole] | 3.49 ± 0.68 µM | 4.55 ± 0.09 µM | 2.44 ± 1.19 µM | 95.3 ± 1.65 µM | 99.4 ± 1.23 µM | 97.4 ± 1.47 µM | – | –
Cc1ccc2oc(-c3ccc(-c4nc5cc(C)ccc5o4)[nH]3)nc2c1 [Compound B2, 2,5‐Bis(5‐Methylbenzo[d]Oxazol‐2‐Yl)‐1H‐Pyrrole] | 4.5 ± 0.23 µM | 4.6 ± 2.2 µM | 2.06 ± 1.67 µM | 96.3 ± 1.03 µM | 99.3 ± 1.03 µM | 94.3 ± 1.56 µM | – | –
COC(=O)c1ccc2nc(-c3ccc(-c4nc5cc(Cl)ccc5o4)[nH]3)oc2c1 [Compound B20, Methyl 2‐(5‐(5‐Chlorobenzo[d]Oxazol‐2‐Yl)‐1H‐Pyrrol‐2‐Yl)benzo[d]Oxazole‐6‐Carboxylate] | 3.25 ± 0.97 µM | 2.97 ± 1.13 µM | 3.07 ± 2.96 µM | 95.4 ± 1.94 µM | ≥ 100 µM | 97.3 ± 1.43 µM | – | –
Clc1ccc2oc(-c3ccc(-c4nc5ccccc5o4)[nH]3)nc2c1 [Compound B9, 2‐(5‐(Benzo[d]Oxazol‐2‐Yl)‐1H‐Pyrrol‐2‐Yl)‐5‐Chlorobenzo[d]Oxazole] | 3.23 ± 0.63 µM | 3.84 ± 1.12 µM | 2.77 ± 1.23 µM | 95.4 ± 1.29 µM | 101 ± 1.38 µM | 97.5 ± 1.99 µM | – | –
COc1ccc2oc(-c3ccc(-c4nc5ccccc5o4)[nH]3)nc2c1 [Compound B8, 2‐(5‐(Benzo[d]Oxazol‐2‐Yl)‐1H‐Pyrrol‐2‐Yl)‐5‐Methoxybenzo[d]Oxazole] | 1.89 ± 0.12 µM | 4.4 ± 0.79 µM | 3.09 ± 0.21 µM | ≥ 100 µM | ≥ 100 µM | ≥ 100 µM | approximately 8 fold | significantly elevated
COc1ccc2oc(-c3ccc(-c4nc5ccc(C)cc5o4)[nH]3)nc2c1 [Compound B15, 5‐Methoxy‐2‐(5‐(6‐Methylbenzo[d]Oxazol‐2‐Yl)‐1H‐Pyrrol‐2‐Yl)benzo[d]Oxazole] | 8.09 ± 2.06 µM | 2.49 ± 1.64 µM | 2.53 ± 1.56 µM | ≥ 100 µM | ≥ 100 µM | ≥ 100 µM | – | –
COC(=O)c1ccc2nc(-c3ccc(-c4nc5ccccc5o4)[nH]3)oc2c1 [Compound B10, Methyl 2‐(5‐(Benzo[d]Oxazol‐2‐Yl)‐1H‐Pyrrol‐2‐Yl)benzo[d]Oxazole‐6‐Carboxylate] | 2.88 ± 0.45 µM | 3.66 ± 1.34 µM | 2.44 ± 2.11 µM | 97.2 ± 1.76 µM | 99.9 ± 1.65 µM | 99.3 ± 1.34 µM | – | –
Cc1ccc2oc(-c3ccc(-c4nc5cc(Cl)ccc5o4)[nH]3)nc2c1 [Compound B13, 5‐Chloro‐2‐(5‐(5‐Methylbenzo[d]Oxazol‐2‐Yl)‐1H‐Pyrrol‐2‐Yl)benzo[d]Oxazole] | 3.6 ± 0.56 µM | 3.43 ± 1.56 µM | 3.28 ± 1.36 µM | ≥ 100 µM | ≥ 100 µM | ≥ 100 µM | – | –
COc1ccc2oc(-c3ccc(-c4nc5cc(C)ccc5o4)[nH]3)nc2c1 [Compound B12, 5‐Methoxy‐2‐(5‐(5‐Methylbenzo[d]Oxazol‐2‐Yl)‐1H‐Pyrrol‐2‐Yl)benzo[d]Oxazole] | 3.49 ± 0.46 µM | 3.88 ± 0.23 µM | 3.11 ± 0.87 µM | ≥ 100 µM | ≥ 100 µM | ≥ 100 µM | – | –
